The text below walks through data of ChEMBL document CHEMBL1135848, “Novel substituted 4-aminomethylpiperidines as potent and selective human beta3-agonists. Part 2: arylethanolaminomethylpiperidines” (Bioorg Med Chem Lett, 2002).

Test [1] has as its target T1, Beta-3 adrenergic receptor (Homo sapiens, UniProt P13945). In words: Human Beta-3 adrenergic receptor intrinsic activity (IA) as maximal response relative to isoproterenol at […]. Type of test: functional.
Target sequence in this assay (P13945 whole entry, looked up): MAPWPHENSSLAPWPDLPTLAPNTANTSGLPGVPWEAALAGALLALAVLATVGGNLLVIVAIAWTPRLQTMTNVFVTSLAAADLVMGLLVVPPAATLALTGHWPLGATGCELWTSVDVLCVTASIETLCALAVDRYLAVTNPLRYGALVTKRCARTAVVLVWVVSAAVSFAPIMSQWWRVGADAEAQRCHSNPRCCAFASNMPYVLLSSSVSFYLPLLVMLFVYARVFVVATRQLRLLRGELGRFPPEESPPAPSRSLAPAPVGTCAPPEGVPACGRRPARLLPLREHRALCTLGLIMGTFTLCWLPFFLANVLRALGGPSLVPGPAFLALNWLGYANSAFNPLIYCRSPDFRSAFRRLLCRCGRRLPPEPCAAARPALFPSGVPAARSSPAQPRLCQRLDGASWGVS
The target in test [2] is T2, Beta-2 adrenergic receptor (Homo sapiens, UniProt P07550). In words: Beta-2 adrenergic receptor agonist activity as increased cAMP levels in CHO cells expressing human Beta-2-adrenoceptor. It counts as functional, cell-based.
The target of test [3] is T3, Beta-1 adrenergic receptor (Homo sapiens, UniProt P08588). Description: Beta-1 adrenergic receptor agonist activity as increased cAMP levels in CHO cells expressing human Beta-1-adrenoceptor. Type of test: functional, cell-based. For orientation: cAMP levels reflect the balance of adenylyl cyclase and phosphodiesterase activity.
Target sequence in this assay (P08588 whole entry): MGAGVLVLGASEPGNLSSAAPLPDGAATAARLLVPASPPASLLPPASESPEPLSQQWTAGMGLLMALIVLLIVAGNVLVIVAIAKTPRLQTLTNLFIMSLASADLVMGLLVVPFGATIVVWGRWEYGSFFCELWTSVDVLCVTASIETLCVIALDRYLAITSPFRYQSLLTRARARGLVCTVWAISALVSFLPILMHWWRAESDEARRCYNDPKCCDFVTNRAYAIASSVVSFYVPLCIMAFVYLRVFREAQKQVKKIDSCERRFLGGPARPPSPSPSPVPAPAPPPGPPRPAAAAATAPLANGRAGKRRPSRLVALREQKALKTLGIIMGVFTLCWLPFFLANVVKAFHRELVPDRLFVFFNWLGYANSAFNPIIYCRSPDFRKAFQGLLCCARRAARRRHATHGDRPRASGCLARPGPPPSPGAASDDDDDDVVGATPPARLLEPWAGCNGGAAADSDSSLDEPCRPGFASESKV
Test [4] deals with T1, Beta-3 adrenergic receptor. In words: Beta-3 adrenergic receptor agonist activity as increased cAMP levels in CHO cells expressing human Beta-3-adrenoceptor. Type of test: functional, cell-based.
Target sequence in this assay (P13945 whole entry): as the sequence (P13945 whole entry, looked up) above
In test [5] the target is T3, Beta-1 adrenergic receptor. In words: Human Beta-1 adrenergic receptor determined as the maximal response divided by the maximal response of isoproterenol at […]. Type of test: functional.
Target sequence in this assay (P08588 whole entry, looked up): as the sequence (P08588 whole entry) above
The target in test [6] is T2, Beta-2 adrenergic receptor. Description: Binding affinity of compound against Beta-2 adrenergic receptor was determined.
Test [7] deals with T3, Beta-1 adrenergic receptor. Description: (§1) Binding affinity of compound against Beta-1 adrenergic receptor was determined.
Target sequence in this assay (P08588 whole entry): as above
The target of test [8] is T1, Beta-3 adrenergic receptor. In words: Beta-3 adrenergic receptor agonist activity was determined by a measurement of increased cAMP levels in CHO cells expressing human Beta-3-adrenoceptor; IA is Inactive. It counts as functional, cell-based.
Target sequence in this assay (P13945 whole entry): as the sequence (P13945 whole entry, looked up) above
In test [9] the target is T3, Beta-1 adrenergic receptor. The test is described as §1. Type of test: functional.
Target sequence in this assay (P08588 whole entry): as the sequence (P08588 whole entry) above
Test [10] concerns the target T1, Beta-3 adrenergic receptor. In words: Evaluated in vivo using transgenic mice containing the human Beta-3-Adrenoceptor and increase in themogenesis was determined. Type of test: functional, organism-based. As to conditions: Mus musculus; call rule not given here.
Target sequence in this assay (P13945 whole entry, looked up): as the sequence (P13945 whole entry, looked up) above
Test [11] deals with T2, Beta-2 adrenergic receptor. In words: Beta-2 adrenergic receptor agonist activity was determined by a measurement of increased cAMP levels in CHO cells expressing human Beta-2 adrenergic receptor. Type of test: functional, cell-based.

T2 sequence (P07550 whole entry): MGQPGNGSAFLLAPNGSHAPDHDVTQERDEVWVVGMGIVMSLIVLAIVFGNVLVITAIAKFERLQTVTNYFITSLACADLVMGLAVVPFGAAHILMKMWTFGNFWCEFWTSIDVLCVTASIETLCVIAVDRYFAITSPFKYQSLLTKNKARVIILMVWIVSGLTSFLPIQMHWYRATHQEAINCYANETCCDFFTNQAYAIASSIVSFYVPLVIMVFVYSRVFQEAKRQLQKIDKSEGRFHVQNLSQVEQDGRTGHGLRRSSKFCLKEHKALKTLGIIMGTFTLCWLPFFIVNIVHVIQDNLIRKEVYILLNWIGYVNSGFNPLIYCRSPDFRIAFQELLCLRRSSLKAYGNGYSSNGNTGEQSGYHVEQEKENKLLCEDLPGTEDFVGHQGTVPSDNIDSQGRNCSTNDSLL

The compound `CC(C)C[C@H](NC(=O)c1ccc(N2CCC(CNC[C@H](O)c3ccc(O)c(NS(C)(=O)=O)c3)CC2)cc1)C(=O)O` displayed an Intrinsic activity in test [1] of 1. In addition, the EC50 (commonly the midpoint of the concentration-response curve) in [2] turned out to be 1000 nM; in test [3], 1860 nM.

In [1], `CS(=O)(=O)Nc1cc([C@@H](O)CNCC2CCN(S(=O)(=O)c3ccc(NC(=O)N[C@@H](Cc4ccccc4)C(=O)O)cc3)CC2)ccc1O` came in with an Intrinsic activity of 1.2. The EC50 in test [2] is 20 nM; in test [3], 520 nM; in test [4], 31 nM.

With `CS(=O)(=O)Nc1cc([C@@H](O)CNCC2CCN(S(=O)(=O)c3ccc(-n4cc(C(=O)O)cn4)cc3)CC2)ccc1O`, the Intrinsic activity in test [1] came out at 0.93. For the same compound, the results for the EC50 in test [2] and in test [3] were 10 nM and 1000 nM, respectively.

As for `CS(=O)(=O)Nc1cc([C@@H](O)CNCC2CCN(c3ccc(C(=O)N[C@@H](Cc4ccccc4)C(=O)O)cc3)CC2)ccc1O`, the Intrinsic activity in test [1] stood at 1.2; in test [5], 0.6. Moreover, the EC50 came out at 20000 nM in test [2], 520 nM in [3] and 31 nM in test [4].

With `CC(C)N(Cc1cc(F)ccc1F)C(=O)Nc1ccc(S(=O)(=O)N2CCC(CNC[C@H](O)c3ccc(O)c(NS(C)(=O)=O)c3)CC2)cc1`, the Intrinsic activity in [1] is 0.93. The EC50 is 12 nM in test [2], 6300 nM in [3] and 27 nM in test [4].

Regarding `CS(=O)(=O)Nc1cc([C@@H](O)CNCC2CCN(S(=O)(=O)c3ccc(-n4cc(CC(=O)O)c5ccccc54)cc3)CC2)ccc1O`, the Intrinsic activity in test [1] stood at 0.96. Moreover, the EC50 in test [2] and in test [3] was 30 nM throughout. Moreover, the Ki (as a rule, the dissociation constant of the complex between target and ligand, obtained from inhibition or displacement) in test [6] is 180 nM; in test [7], 240 nM.

With `CS(=O)(=O)Nc1cc([C@@H](O)CNCC2CCN(c3ccc(C(=O)N[C@@H](CC(=O)O)C(=O)O)cc3)CC2)ccc1O`, the Intrinsic activity in test [1] came out at 0.95. Further, the EC50 in test [2] was 5 nM; in test [3], 580 nM.

In the case of `CCCCCCCCNC(=O)Nc1ccc(S(=O)(=O)N2CCC(CNC[C@H](O)c3cc(NS(C)(=O)=O)c4[nH]ccc4c3)CC2)cc1`, in test [8], the EC50 entry is listed as “Not Active”.

On to `CCCCCCCCNC(=O)Nc1ccc(S(=O)(=O)N2CCC(CNC[C@H](O)c3ccc4[nH]ccc4c3)CC2)cc1`, for which, in test [8], the EC50 entry is recorded as “Not Active”.

On to `CCCCCCCCC(=O)Nc1ccc(S(=O)(=O)N2CCC(CNC[C@H](O)c3ccc(O)c(NS(C)(=O)=O)c3)CC2)cc1`, for which the values for the Ki in test [9] and in test [6] were 6600 nM and 140 nM, respectively. Moreover, the Intrinsic activity in test [1] is 1. In addition, the EC50 came out at 30 nM in test [2], 730 nM in test [3] and 6 nM in test [4]. Further, the Increase in test [10] came out at 10%.

In the case of `CS(=O)(=O)Nc1cc([C@@H](O)CNCC2CCN(S(=O)(=O)c3ccc(-n4ccc5c(C(=O)O)cccc54)cc3)CC2)ccc1O`, in test [1], the Intrinsic activity is 1. Also, the EC50 in [2] is 60 nM; in test [3], 50 nM.

In turn, `CS(=O)(=O)Nc1cc([C@@H](O)CNCC2CCN(S(=O)(=O)c3ccc(NC(=O)NCc4cc(F)ccc4F)cc3)CC2)ccc1O` returned an Intrinsic activity in test [1] of 0.93. The EC50 in test [11] is 30 nM; in test [3] it was 3160 nM; in test [4] it was 5 nM.
